Data as given in ChEMBL document CHEMBL5053536, “Discovery of Quinazoline-2,4(1H,3H)-dione Derivatives Containing 3-Substituted Piperizines as Potent PARP-1/2 Inhibitors─Design, Synthesis, In Vivo Antitumor Activity, and X-ray Crystal Structure Analysis” (J Med Chem, 2021).
pIC50, pKd: −log10 of the molar value. Activity calls are given as the source filed them. No cut-off for these calls is given here.

How the values were obtained:
[1] = molecular target: T1, Poly [ADP-ribose] polymerase 1 (Homo sapiens, UniProt P09874); assay: Inhibition of recombinant human PARP1 using NAD+ as substrate incubated for 1 hr by ELISA
T1 sequence (P09874 whole entry): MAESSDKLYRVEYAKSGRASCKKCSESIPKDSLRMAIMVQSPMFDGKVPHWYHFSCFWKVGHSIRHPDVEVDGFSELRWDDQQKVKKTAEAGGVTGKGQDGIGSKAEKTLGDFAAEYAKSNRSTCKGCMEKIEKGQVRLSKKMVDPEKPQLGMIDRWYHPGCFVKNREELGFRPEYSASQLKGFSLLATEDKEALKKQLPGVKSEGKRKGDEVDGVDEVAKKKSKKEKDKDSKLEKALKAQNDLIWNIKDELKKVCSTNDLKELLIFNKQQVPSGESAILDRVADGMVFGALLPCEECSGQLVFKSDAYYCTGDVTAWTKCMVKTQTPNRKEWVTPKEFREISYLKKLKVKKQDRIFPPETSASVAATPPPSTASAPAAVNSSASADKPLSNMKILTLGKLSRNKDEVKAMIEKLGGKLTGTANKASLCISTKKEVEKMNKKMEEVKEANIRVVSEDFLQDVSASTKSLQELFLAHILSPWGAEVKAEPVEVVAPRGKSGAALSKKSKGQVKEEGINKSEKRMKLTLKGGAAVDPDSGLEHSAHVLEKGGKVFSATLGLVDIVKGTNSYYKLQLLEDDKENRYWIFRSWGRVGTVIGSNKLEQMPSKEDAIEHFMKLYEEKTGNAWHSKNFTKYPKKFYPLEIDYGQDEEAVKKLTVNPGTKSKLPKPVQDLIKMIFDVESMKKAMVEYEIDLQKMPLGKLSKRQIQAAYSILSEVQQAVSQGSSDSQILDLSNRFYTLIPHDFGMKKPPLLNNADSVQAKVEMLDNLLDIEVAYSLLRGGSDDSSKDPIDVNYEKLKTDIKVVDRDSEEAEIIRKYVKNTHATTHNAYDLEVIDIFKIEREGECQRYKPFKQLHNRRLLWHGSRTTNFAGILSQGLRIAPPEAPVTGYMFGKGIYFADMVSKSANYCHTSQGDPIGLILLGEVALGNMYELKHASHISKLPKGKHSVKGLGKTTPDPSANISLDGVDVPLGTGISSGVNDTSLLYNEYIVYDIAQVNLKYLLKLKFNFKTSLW

[2] = molecular target: T2, Poly [ADP-ribose] polymerase 2 (Homo sapiens, UniProt Q9UGN5); assay: Inhibition of recombinant human PARP2 using NAD+ as substrate incubated for 1 hr by ELISA
T2 sequence (Q9UGN5 whole entry): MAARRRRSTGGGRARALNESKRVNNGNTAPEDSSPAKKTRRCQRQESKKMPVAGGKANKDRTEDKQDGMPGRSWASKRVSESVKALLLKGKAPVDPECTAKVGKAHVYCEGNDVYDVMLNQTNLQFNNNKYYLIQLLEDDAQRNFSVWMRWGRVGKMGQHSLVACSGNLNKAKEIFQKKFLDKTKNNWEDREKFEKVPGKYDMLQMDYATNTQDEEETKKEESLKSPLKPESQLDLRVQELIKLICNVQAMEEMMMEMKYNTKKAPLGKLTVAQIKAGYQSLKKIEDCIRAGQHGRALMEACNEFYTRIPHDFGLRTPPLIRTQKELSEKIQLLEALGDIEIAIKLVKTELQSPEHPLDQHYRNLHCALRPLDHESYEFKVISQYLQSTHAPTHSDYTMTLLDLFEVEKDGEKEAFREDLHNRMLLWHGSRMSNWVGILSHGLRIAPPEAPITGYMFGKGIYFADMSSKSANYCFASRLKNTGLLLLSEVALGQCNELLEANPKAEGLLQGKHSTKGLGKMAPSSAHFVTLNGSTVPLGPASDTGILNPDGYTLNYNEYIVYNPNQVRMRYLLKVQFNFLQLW

Homo sapiens = species on record: Homo sapiens; assay: Selectivity index, ratio of IC50 for inhibition of recombinant human PARP2 to IC50 for inhibition of recombinant human PARP1
MX1 [3] = assay: Inhibition of PARP1/2 in human MX1 cells assessed as reduction in PAR formation at 1 to 10 uM after 24 hrs by Western blot analysis; type: cell-based; details: dose 1-10 µM
U-251 [4] = assay: Inhibition of PARP1/2-mediated DNA repair in human U-251 cells assessed as increase in […] expression at 1 to 10 uM after 24 hrs in presence of TMZ by Western blot analysis; type: cell-based; details: dose 1-10 µM
U-251 [5] = assay: Inhibition of PARP1/2-mediated DNA repair in human U-251 cells assessed as reduction in PAR formation at 1 to 10 uM after 24 hrs in presence of TMZ by Western blot analysis; type: cell-based; details: dose 1-10 µM
T98G = assay: Inhibition of PARP1/2-mediated DNA repair in human T98G cells assessed as reduction in PAR formation at 1 to 10 uM after 24 hrs in presence of TMZ by Western blot analysis; type: cell-based; details: dose 1-10 µM
A 172 = assay: Cytotoxicity against human A172 cells assessed as reduction in cell viability at 5 to 10 uM incubated for 72 hrs in presence of TMZ by MTT assay; type: functional, cell-based; details: dose 5-10 µM
U-251 [6] = assay: Cytotoxicity against TMZ-resistant human U-251 cells assessed as reduction in cell viability at 5 to 10 uM incubated for 72 hrs in presence of TMZ by MTT assay; type: functional, cell-based; details: dose 5-10 µM
[7] = molecular target: T1, Poly [ADP-ribose] polymerase 1; assay: Binding affinity to recombinant human PARP1 assessed as dissociation constant by SPR assay
[8] = molecular target: T1, Poly [ADP-ribose] polymerase 1; assay: Binding affinity to recombinant human PARP1 assessed as dissociation half life by SPR assay
[9] = molecular target: T2, Poly [ADP-ribose] polymerase 2; assay: Binding affinity to recombinant human PARP2 assessed as dissociation half life by SPR assay
[10] = Tmax in BALB/c mouse at 25 mg/kg, po measured upto 24 hrs by LC-MS/MS analysis; type: ADME, organism-based; details: in vivo
[11] = Tmax in Sprague-Dawley rat at 20 mg/kg, po measured upto 24 hrs by LC-MS/MS analysis; type: ADME, organism-based; details: in vivo
[12] = Tmax in Beagle dog at 20 mg/kg, po measured upto 24 hrs by LC-MS/MS analysis; type: ADME, organism-based, Canis lupus familiaris; details: in vivo
[13] = Cmax in BALB/c mouse at 25 mg/kg, po measured upto 24 hrs by LC-MS/MS analysis; type: ADME, organism-based; parameters: time < 24 hrs, dose 25 mg/kg, route po; details: in vivo
[14] = Cmax in Beagle dog at 20 mg/kg, po measured upto 24 hrs by LC-MS/MS analysis; type: ADME, organism-based, Canis lupus familiaris; parameters: time < 24 hrs, dose 20 mg/kg, route po; details: in vivo
[15] = AUC(0 to t) in Sprague-Dawley rat at 20 mg/kg, po measured upto 24 hrs by LC-MS/MS analysis; type: ADME, organism-based; parameters: time < 24 hrs, dose 20 mg/kg, route po; details: in vivo
[16] = AUC(0 to infinity) in Beagle dog at 20 mg/kg, po measured upto 24 hrs by LC-MS/MS analysis; type: ADME, organism-based, Canis lupus familiaris; parameters: dose 20 mg/kg, time < 24 hrs, route po; details: in vivo
[17] = MRT(0 to t) in BALB/c mouse at 25 mg/kg, po measured upto 24 hrs by LC-MS/MS analysis; type: ADME, organism-based; details: in vivo
[18] = MRT(0 to t) in Beagle dog at 20 mg/kg, po measured upto 24 hrs by LC-MS/MS analysis; type: ADME, organism-based, Canis lupus familiaris; details: in vivo
[19] = MRT(0 to t) in Beagle dog at 0.4 mg/kg, iv measured upto 24 hrs by LC-MS/MS analysis; type: ADME, organism-based, Canis lupus familiaris; details: in vivo
[20] = MRT(0 to infinity) in Sprague-Dawley rat at 20 mg/kg, po measured upto 24 hrs by LC-MS/MS analysis; type: ADME, organism-based; details: in vivo
MX1 [21] = assay: Antitumor activity against human MX1 cells xenografted in athymic nu/nu mouse assessed as tumor growth inhibition at 12.5 to 25 mg/kg, po administered once daily for 5 days and measured on day 7 in presence of 50 mg/kg TMZ; type: functional; details: dose 12.5-25 mg/kg, time 7 day
MX1 [22] = assay: Antitumor activity against human MX1 cells xenografted in athymic nu/nu mouse assessed as tumor growth inhibition at 25 mg/kg, po administered once daily for 5 days and measured on day 17 in presence of 50 mg/kg TMZ; type: functional; details: Mus musculus, MX1, 408 h, time 17 day, read-out: TGI
MDA-MB-436 = assay: Antitumor activity against human MDA-MB-436 cells xenografted in athymic nu/nu mouse assessed as tumor growth inhibition at 20 to 80 mg/kg, po administered once daily for 17 days; type: functional; details: dose 20-80 mg/kg, time 17 day
U-87 MG [23] = assay: Antitumor activity against human U-87MG cells xenografted in BALB/c mouse assessed as reduction in tumor volume at 50 mg/kg, po administered once daily for 5 days and measured on day 8 by MRI scanner (reference value: 202 +/- 120.4 mm3); type: functional, U-87MG ATCC; details: time 8 day
U-87 MG [24] = assay: Antitumor activity against human U-87MG cells xenografted in BALB/c mouse assessed as reduction in tumor volume at 25 mg/kg, po administered once daily for 5 days and measured on day 8 in presence of 30 mg/kg TMZ by MRI scanner (reference value: 202 +/- 120.4 mm3); type: functional, U-87MG ATCC; details: time 8 day
[25] = Drug concentration in Sprague-Dawley rat brain assessed as brain blood ratio measured upto 24 hrs by LC-MS/MS analysis; type: ADME, organism-based; details: read-out: BBR
U-87 MG [26] = assay: Antitumor activity against human U-87MG cells xenografted in BALB/c mouse assessed as reduction in tumor volume at 25 mg/kg, po administered once daily for 5 days and measured on day 32 in presence of 30 mg/kg TMZ by MRI scanner; type: functional, U-87MG ATCC; details: time 32 day
U-87 MG [27] = assay: Antitumor activity against human U-87MG cells xenografted in BALB/c mouse assessed as T/C ratio at 25 mg/kg, po administered once daily for 5 days and measured upto 32 days in presence of 30 mg/kg TMZ by MRI scanner; type: functional, U-87MG ATCC; details: time <= 32 day
U-87 MG [28] = assay: Antitumor activity against human U-87MG cells xenografted in BALB/c mouse assessed as T/C ratio at 50 mg/kg, po administered once daily for 5 days and measured upto 32 days in presence of 30 mg/kg TMZ by MRI scanner; type: functional, U-87MG ATCC; details: time <= 32 day
[29] = Acute toxicity in po dosed Crl: […](ICR)-BR mouse after 14 days; type: organism-based; details: in vivo, time 14 day
Mus musculus [30] = assay: Toxicity in BALB/c mouse xenografted with human U-87MG cells assessed as effect on body weight at 50 mg/kg, po administered once daily for 5 days and measured on day 8 (reference value: 18.2 +/- 0.6 g); type: organism-based; details: in vivo, 192 h, time 8 day
Mus musculus [31] = assay: Toxicity in BALB/c mouse xenografted with human U-87MG cells assessed as effect on body weight at 50 mg/kg, po administered once daily for 5 days and measured on day 8 in presence of 30 mg/kg TMZ (reference value: 18.5 +/- 1 g); type: organism-based; details: in vivo, 192 h, time 8 day

CC[C@@H]1CN(C(=O)c2cc(Cn3c(=O)[nH]c(=O)c4ccccc43)ccc2F)CCN1CC
pIC50 [1]: 9.29
pIC50 [2]: 7.64
Ratio IC50 (Homo sapiens): 45
inhibition (MX1 [3]): Active
inhibition (U-251 [4]): Active
inhibition (U-251 [5]): Active
inhibition (T98G): Active
Activity (A 172): Active
Activity (U-251 [6]): Active
pKd [7]: 8.72
T1/2 [8]: 75.7 min
T1/2 [9]: 5.48 min
Tmax [10]: 30 min
Tmax [11]: 4.98 min
Tmax [12]: 30 min
Cmax [13]: 399 ng/mL
Cmax [14]: 6440 ng/mL
AUC(0-t) at 24 h [15]: 330 ng·h/mL
AUC(0-inf) [16]: 34600 ng·h/mL
MRT last at 24 h [17]: 55.2 min
MRT last at 24 h [18]: 275 min
MRT last at 24 h [19]: 78.6 min
MRT inf [20]: 82.2 min
TGI (MX1 [21]): >90%
inhibition in vivo at 25 mg/kg (MX1 [22]): 86.8%
TGI (MDA-MB-436): 68%
Activity (U-87 MG [23]): 218.6 mm3
Activity (U-87 MG [24]): 0 mm3
Kp at 24 h [25]: 0.1
Activity (U-87 MG [26]): 10.3 mm3
T/C (U-87 MG [27]): 12.1%
T/C (U-87 MG [28]): 14.1%
LD50 at 336 h [29]: 3500 mg/kg
Activity (Mus musculus [30]): 15.3 g
Activity (Mus musculus [31]): 16.3 g
